Experiments:
Assay in all cases: Metabolism of compound (II) by a microorganism
Type in all cases: in vitro ADME
Details in all cases: compound (II) at 100 ppm, 7 to 8 days at 30° C.
[1] = tested on: Streptomyces kasugaensis IFO13851
Procedure: (§1) The HPLC for content analysis in Examples 1, 41 and 42 and fraction purification of the compound was conducted under the conditions shown below.
(§2) The various microorganisms shown in Tables 1 and 2 were grown in ISP2 agar medium (1.0% (w/v) malt extract, 0.4% (w/v) yeast extract, 0.4% (w/v) glucose, 2.0% (w/v) agar, pH 7.3). A “loopful” of the each microorganism was added to TGY medium (0.5% (w/v) tryptone, 0.5% (w/v) yeast extract, 0.1% (w/v) glucose, 0.01% (w/v) KH2PO4, pH 7.0) and incubated with shaking at 30° C. for 2 to 4 days. One-tenth milliliter (0.1 ml) of the obtained culture was incubated with shaking in 3 ml of sporulation medium (0.1% (w/v) of meat extract, 0.2% (w/v) tryptose, 1% glucose, pH 7.1) containing compound (II) at 100 ppm for 7 to 8 days at 30° C. Fifty microliters (50 μl) of 2N HCl was added to the resulting culture and this was extracted with 3 ml of ethyl acetate. The obtained ethyl acetate layer was analyzed on the HPLC. The concentration of compound (II) was reduced (column retention time of 23.9 minutes) and new peaks were detected for compounds at retention times of 21.6 minutes and 22.2 minutes (each referred to as metabolite (I) and metabolite (II)).

[2] = tested on: Streptomyces kasugaensis ATCC15714
Procedure: as §1, §2

[3] = tested on: Streptomyces cacaoiasoensis IFO13813
Procedure: as §1, §2

[4] = tested on: Streptomyces roseochromogenus ATCC21895
Procedure: as §1, §2

[5] = tested on: Streptomyces thermocoerulescens IFO14273t
Procedure: as §1, §2

[6] = tested on: Streptomyces griseofuscus IFO12870t
Procedure: as §1, §2

[7] = tested on: Streptomyces griseus IFO3102
Procedure: as §1, §2

[8] = tested on: Streptomyces afghaniensis IFO12831
Procedure: as §1, §2

[9] = tested on: Streptomyces scabies IFO3111
Procedure: as §1, §2

[10] = tested on: Streptomyces chartreusis ATCC21901
Procedure: as §1, §2

[11] = tested on: Streptomyces griseus ATCC15395
Procedure: as §1, §2

[12] = tested on: Streptomyces lydicus IFO13058
Procedure: as §1, §2

[13] = tested on: Streptomyces lavendulae ATCC11924
Procedure: as §1, §2

[14] = tested on: Streptomyces phaeochromogenes IFO12898
Procedure: as §1, §2

[15] = tested on: Streptomyces erythreus ATCC11635
Procedure: as §1, §2

[16] = tested on: Saccharopolyspora taberi JCM9383T
Procedure: as §1, §2

[17] = tested on: Streptomyces achromogenes IFO12735
Procedure: as §1, §2

[18] = tested on: Streptomyces purpurascens ATCC25489
Procedure: as §1, §2

[19] = tested on: Streptomyces globisporus subsp. globisporus ATCC21903
Procedure: as §1, §2

[20] = tested on: Streptomyces testaceus ATCC21469
Procedure: as §1, §2

[21] = tested on: Streptomyces roseochromogenes ATCC13400t
Procedure: as §1, §2

[22] = tested on: Streptomyces griseochromogenes ATCC14511
Procedure: as §1, §2

[23] = tested on: Streptomyces griseolus ATCC11796
Procedure: as §1, §2

[24] = tested on: Streptomyces argenteolus var. toyon ATCC21468t
Procedure: as §1, §2

[25] = tested on: Streptomyces griseus ATCC10137
Procedure: as §1, §2

[26] = tested on: Streptomyces ornatus IFO13069t
Procedure: as §1, §2

[27] = tested on: Streptomyces fimicarius ATCC21900
Procedure: as §1, §2

[28] = tested on: Streptomyces griseus ATCC11429
Procedure: as §1, §2

[29] = tested on: Streptomyces griseus ATCC12475
Procedure: as §1, §2

[30] = tested on: Streptomyces argenteolus var. toyonakensis ATCC21468
Procedure: as §1, §2

[31] = tested on: Streptomyces hachijoensis IFO12782
Procedure: as §1, §2

Structure (SMILES): C[C@@H](Oc1cc(-n2c(=O)cc(C(F)(F)F)n(C)c2=O)c(F)cc1Cl)C(=O)O [compound (II)]
- concentration of compound (II) [1]: 66.3 ppm
- concentration of compound (II) [2]: 92.4 ppm
- concentration of compound (II) [3]: 77.8 ppm
- concentration of compound (II) [4]: 74.2 ppm
- concentration of compound (II) [5]: 51.7 ppm
- concentration of compound (II) [6]: 49.5 ppm
- concentration of compound (II) [7]: 22.6 ppm
- concentration of compound (II) [8]: 80.6 ppm
- concentration of compound (II) [9]: 88.3 ppm
- concentration of compound (II) [10]: 61.1 ppm
- concentration of compound (II) [11]: 75.2 ppm
- concentration of compound (II) [12]: 62.0 ppm
- concentration of compound (II) [13]: 89.6 ppm
- concentration of compound (II) [14]: 46.4 ppm
- concentration of compound (II) [15]: 54.6 ppm
- concentration of compound (II) [16]: 82.9 ppm
- concentration of compound (II) [17]: 0.0 ppm
- concentration of compound (II) [18]: 70.9 ppm
- concentration of compound (II) [19]: 79.9 ppm
- concentration of compound (II) [20]: 18.4 ppm
- concentration of compound (II) [21]: 71.8 ppm
- concentration of compound (II) [22]: 53.9 ppm
- concentration of compound (II) [23]: 0 ppm
- concentration of compound (II) [24]: 90.1 ppm
- concentration of compound (II) [25]: 65.6 ppm
- concentration of compound (II) [26]: 65.3 ppm
- concentration of compound (II) [27]: 46.5 ppm
- concentration of compound (II) [28]: 30.3 ppm
- concentration of compound (II) [29]: 51.1 ppm
- concentration of compound (II) [30]: 13.0 ppm
- concentration of compound (II) [31]: 83.9 ppm

From patent US8293979B2, “Weed controller metabolism proteins, genes, thereof and use of the same” (Sumitomo Chemical Company, Limited, priority 2001, dated 2012)
